What was measured:
retina [1] = assay: 26 weeks of treatment in pigmented rats: retina; format: in vivo
retina [2] = settings: monkey, in vivo
Source text: Over the in-life duration of the 39-week monkey toxicity study with RO7034067, the low dose remained free of any test-item related changes in sdOCT and ERG until the last week of assessment (week 35).

[3] = Stability of test item formulations; format: physicochemical; settings: formulations 0.025 to 5 mg/mL, 2 to 8° C., absence of oxygen (under nitrogen)
Protocol: The test item was formulated as a solution in 10 mM ascorbic acid/0.0064 mg/mL sodium thiosulfate at pH 3. The formulations were stored at 2 to 8° C. with absence of oxygen (under nitrogen), protected from the light in a sealed container. They were allowed to reach room temperature prior to dosing and were stirred on arrival at the animal room and then continuously throughout dosing.

[4] = test system: FOXM1B/C transcript variants; assay: FOXM1B/C mRNA expression in Cynomolgus monkey iPSCs (RT-qPCR); format: cell-based; settings: 24 h; for Mean FOXM1B/C relative mRNA expression (2-ΔΔCt vs control): Cynomolgus monkey iPSCs
Protocol: FIG. 5A-FIG. 5B: Effect of RO7034067 on FOXM1 mRNA expression levels in human and Cynomolgus monkey iPSCs • Cells were treated with RO7034067 for 24 hours, and FOXM1 B/C transcript variants were analyzed by RT-PCR. Data represent means±SEM of 3 repetitions and are expressed as fold change vs. controls. IC50 values are indicated. FIG. 5A. human iPSCs. FIG. 5B. Cynomolgus monkey iPSCs
Human iPSCs (hIPS_Neo_Clone_1) were cultivated in mTeSR1 (Stem Cell Technologies) as standard medium and Cynomolgus monkey iPSCs (cips_54-1285_cFIB_Clone_8) in MT medium supplemented with 10 ng/ml ActivinA and 15 ng/ml FGF2.
For gene expression profiling, stem cells were detached with Accutase (Stem Cell Technologies) and plated in 12 well plates coated with Matrigel (BD Biosciences) in the respective standard medium supplemented with 10 μM Rock inhibitor Y-27632 (Sigma-Aldrich). In order to obtain enough RNA, monkey stem cells were seeded at 15000 cells/cm2 and human stem cells were seeded at 40000 cells/cm2 24 h prior to treatment. Thereafter stem cells were treated for 24 h with serial dilutions (1:5) of test items in fresh, pre-warmed medium in a concentration range from 0.64 nM till ˜10 μM. To stop the experiment, cells were lysed in QiaGen's lysis buffer RLT with beta-mercaptoethanol.
Human and Cynomolgus monkey mRNA expression was measured with customized primer and FAM fluorescently-labeled Universal Probe Library (UPL) probes from Roche or probes from Microsynth containing a 5′ FAM label and a 3′ terminal BlackHole Dark Quencher 1 (BHQ1). The sequences of the primer and FAM labeled probes are listed as follows:
For quantitative Real-Time-PCR, cells cultivated in a 12 well plate and treated with Roche-compounds for 24 h were lysed in 500 ul/well of QiaGen's lysis buffer RLT with beta-mercaptoethanol. Total RNA was extracted with the RNeasy Mini kit combined with DNase treatment on a solid support. RNA integrity was controlled by using Nanodrop absorption spectroscopy and microfluidic capillary array electrophoresis profiles from an Agilent Bioanalyzer
2100. Between 300 ng to 800 ng of total RNA were reverse transcribed with oligo-dT primer and spiked MS2 RNA at 10 ng/uL final concentration using the Transcriptor First Strand cDNA Synthesis Kit (Roche Applied Science #04379012001) following the manufacturer's recommended protocol. The quantitative PCR was performed on a LightCycler 480 qPCR machine using 67.5 ng total RNA derived cDNA as input in a 20 μl mixture containing 1× LightCycler 480 Probes Master, 0.4 μM forward and reverse primers, and 0.2 μM FAM labeled hydrolysis probe. The temperature program consisted of pre-incubation at 95° C. for 10 min, followed by 50 cycles of amplification (95° C. for 10 s, 60° C. for 30 s, 72° C. for 5 s). Negative control reactions were conducted in the absence of cDNA template to confirm absence of cDNA contamination in the master mix. Measurements of Ct (cycle threshold)-values were performed for each sample-mRNA combination. Using the 2-ΔΔCt method (Livak K J et al. Method. Methods. 2001; 25(4):402-8), the data are presented as the fold change in gene expression normalized to an endogenous reference gene and relative to the untreated control. To derive individual ΔCt values, the Ct value for each target mRNA of each sample was normalized to the Ct value of the endogenous reference mRNA of GAPDH (glyceraldehyde-3-phosphate dehydrogenase). The […] was calculated by subtracting the ΔCt value of the vehicle-control group from the respective ΔCt value of each treatment group. Resultant expression ratios (2-ΔΔCt) mirrored treatment-related mRNA expression changes versus vehicle-controls. […] The model to derive the IC50 assumes that the dose response curves has a standard slope, equal to a Hill slope (or slope factor) of −1.0. Model equation: Y=Bottom+(Top-Bottom)/(1+10^((X-Log IC50))); with Y being the response data and X being log 10 concentrations in μM.

FMO3 = biological target: T1, FMO3 (Homo sapiens, UniProt P31513); assay: Elimination pathway; format: in vitro ADME
T1 sequence (P31513 1-532): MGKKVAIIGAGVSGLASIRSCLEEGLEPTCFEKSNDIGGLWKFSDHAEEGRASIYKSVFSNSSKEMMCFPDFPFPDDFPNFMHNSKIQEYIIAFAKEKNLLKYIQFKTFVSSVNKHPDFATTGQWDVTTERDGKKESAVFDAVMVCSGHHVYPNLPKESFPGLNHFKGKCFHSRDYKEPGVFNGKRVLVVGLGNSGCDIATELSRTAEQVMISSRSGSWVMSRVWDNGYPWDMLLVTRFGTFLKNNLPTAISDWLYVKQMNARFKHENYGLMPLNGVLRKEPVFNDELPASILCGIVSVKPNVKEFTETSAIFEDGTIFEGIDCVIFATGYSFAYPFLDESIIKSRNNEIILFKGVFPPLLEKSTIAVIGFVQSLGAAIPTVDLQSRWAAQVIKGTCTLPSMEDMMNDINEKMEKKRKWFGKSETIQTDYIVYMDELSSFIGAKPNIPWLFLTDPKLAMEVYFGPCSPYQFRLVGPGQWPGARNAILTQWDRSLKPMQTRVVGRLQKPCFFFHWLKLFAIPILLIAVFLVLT

human RPE cells = assay: Lysosomal function in human RPE cells in vitro; format: cell-based
Melanin binding in vitro = format: in vitro ADME

Cc1cn2nc(-c3cc(=O)n4cc(N5CCNC6(CC6)C5)ccc4n3)cc(C)c2n1 [RO7034067, 7-(4,7-diazaspiro[2.5]octan-7-yl)-2-(2,8-dimethylimidazo[1,2-b]pyridazin-6-yl)pyrido[1,2-a]pyrimidin-4-one]
retinal effects (retina [1]): no evidence for any retinal effects | individual AUC0-24h exposures without retina changes (retina [2]): up to 15,100 ng·h/mL | time formulations were stable [3]: up to 4 weeks | Mean FOXM1B/C relative mRNA expression (2-ΔΔCt vs control) ([4]; 0.64 nM): 0.967 | Mean FOXM1B/C relative mRNA expression (2-ΔΔCt vs control) ([4]; 3.2 nM): 0.990 | Mean FOXM1B/C relative mRNA expression (2-ΔΔCt vs control) ([4]; 16 nM): 0.963 | Mean FOXM1B/C relative mRNA expression (2-ΔΔCt vs control) ([4]; 80 nM): 0.704 | Mean FOXM1B/C relative mRNA expression (2-ΔΔCt vs control) ([4]; 400 nM): 0.176 | Mean FOXM1B/C relative mRNA expression (2-ΔΔCt vs control) ([4]; 2000 nM): 0.023 | Mean FOXM1B/C relative mRNA expression (2-ΔΔCt vs control) ([4]; 10000 nM): 0.037 | IC50 ([4]; Macaca fascicularis, iPSC, monkey iPSCs, read-out: IC50 on expression levels of FOXM1B/C): 155 nM | elimination pathway (FMO3): FMO3 participates on the elimination path way | effect on human RPE cells (human RPE cells): Impairment of lysosomal function/autophagosomal accumulation | melanin binding (Melanin binding in vitro): high melanin binding

From US12350273B2, “Treatment of SMA” (Hoffmann-La Roche Inc., priority 2017, dated 2025)
